Values after ≈ are worked out from the molar mass of the structure shown. Peptide text beside a SMILES is read from it.
Legend:
[1] = system: human vascular endothelial cells and fibroblast cells (co-culture, Angiogenesis Kit KZ-1000); settings: 10 μg/mL, length of lumina
Experimental: Using AG30-5C as a positive control, the angiogenesis-inducing activity of SR-1 and SR-2 was measured. […] As a negative control, polypeptide-free group (Control) was used.
Cells were cultured at 37° C. under 5% CO2 in a 24-well plate using the special media to which the polypeptide was added. The medium was replaced with a medium containing the same polypeptide on day 4, day 7 and day 9 of culture. On day 11 from the beginning of the culture, the medium was removed and staining was performed using a kit for staining lumina (for CD31 antibody staining) according to the following procedure.
The primary antibody (mouse anti-human CD31 antibody) was 4000-fold diluted with a blocking solution (Dulbecco's phosphate buffered saline (PBS(−)) containing 1% BSA). To each well, 0.5 mL of this primary antibody solution was added, and the plate was incubated for 60 minutes at 37° C. After the completion of the incubation, each well was washed totally 3 times with 1 mL of the blocking solution.
Then, 0.5 mL of a secondary antibody solution (goat anti-mouse IgG/alkaline phosphatase conjugate) 500-fold diluted with the blocking solution was added to each well. The plate was incubated for 60 minutes at 37° C., and thereafter each well was washed 3 times with 1 mL of distilled water. During that period, 2 tablets of BCIP/NBT were dissolved into distilled water, and the obtained solution was filtered through a filter having a pore size of 0.2 μm to prepare a substrate solution. To each well, 0.5 mL of the prepared BCIP/NBT substrate solution was added, and the plate was incubated at 37° C. until the lumina turned to deep purple (typically for 5-10 minutes). After the completion of the incubation, each well was washed 3 times with 1 mL of distilled water. After washing, the washing solution was removed by aspiration, and the plate was left to stand and dry naturally. After drying, photographs of each well were taken under a microscope.
Each of the obtained images was quantified using an angiogenesis quantification software. Computer analysis was carried out on various parameters.

[2] = system: HWY/slc hairless rats, full-thickness defect infected with Staphylococcus aureus; experiment: Healing effect in rat infected-wound model; assay type: in vivo
Experimental: Referring to Stenberg B D et al. (J Surg Res. 1991 January; 50(1):47-50.) and Hayward P et al. (Am J. Surg. 1992 March; 163(3):288-93.), a rat infected-wound model was produced as described below. […] hairless rats (male, 7-week old, obtained from Japan SLC, Inc.) were used. The day before full-thickness defects were created, the number of leukocytes was measured and cyclophosphamide was administered in tail vein (100 mg/kg). On the next day, the number of leukocytes was counted. Only the individuals in which the number of leukocytes was not more than 5000, were used. […] After administering the test substances, the wound sites were covered with a covering (PERME-ROLL, Nitto Medical Corporation) (day 0). […] Six days after the full-thickness defects were created (day 6), the area where the wounds had still not healed was measured to calculate the ratio of it relative to the area where the wounds were created, and the ratio was regarded as the wound area ratio on day 6.

[3] = system: Escherichia coli ATCC 25922; experiment: microbe, parasite or virus in culture; assay type: cell-based; settings: ATCC25922, 37° C., 20 hours
Experimental: ATP (%) of the antibacterial activity was measured in the same manner as mentioned above, and the “minimum inhibitory concentration (MIC)” was measured as follows. MIC is the lowest concentration of an agent that may inhibit the growth of a bacterium. MIC is used as a parameter for the efficacy of an antibacterial agent, for the strength of bacterial sensitivity, or the like. The bacteria can grow (proliferate) when the concentration is not higher than MIC, and cannot grow when the concentration is higher than MIC. […] (CLSI), but, in this Example, its measurement was carried out by a broth microdilution method in accordance with “M100-S17/M7-A7” (Performance Standards for Antimicrobial Susceptibility Testing; Seventeenth Informational Supplement, Vol. 27 No. 1) published by CLSI on January, 2007. That is, sensitivity test of agents was carried out using a microtiter plate or test tubes. The bacteria were cultured in the liquid media for 4 to 6 hours, and thereafter absorbances at A600 were measured. Bacterial suspensions were diluted with Mueller-Hinton broth (MHB) according to McFarland #0.5. Each strain was added so as to attain about 10^5 CFU/ml (final concentration). Each peptide was prepared to an optional concentration, and the solutions were serially diluted from the concentration. The polypeptide at each concentration stage was added to a microplate or test tubes, and the bacterial suspension was added thereto. […] The plate was incubated at 37° C. for 20 hours, the lowest concentration where bacterial growth was inhibited was regarded as the minimum inhibitory concentration. With respect to each strain, Escherichia coli: ATCC 25922 (Escherichia coli ATCC 25922), Pseudomonas aeruginosa: ATCC 27853 (Pseudomonas aeruginosa ATCC 27853), Staphylococcus aureus: ATCC29213 (Staphylococcus aureus ATCC29213), Klebsiella pneumoniae: JCM 1662 (Klebsiella pneumoniae JCM 1662), enterobacteria (1): JCM 1232 (Enterobacter cloacae JCM 1232), enterobacteria (2): JCM 1235 (Enterobacter aerogenes JCM 1235), and Staphylococcus epidermidis: JCM 2414 (Staphylococcus epidermidis JCM 2414), were used. […] As the concentrations of the agents in ATP assay, the concentrations as described in the Tables were used.

| SMILES | angiogenesis-inducing activity compared with AG30-5C [1] | Wound area ratio on day 6 ([2]; SR-1 50 μg, bFGF formulation 3 μg/25 μL, once a day days 0-3) | healing effect on wounds associated with infection ([2]; compared with the bFGF formulation) | MIC [3] [µg/mL] |
| --- | --- | --- | --- | --- |
| CC[C@H](C)[C@H](NC(=O)[C@H](CC(C)C)NC(=O)[C@H](CCCCN)NC(=O)[C@H](CC(C)C)NC(=O)[C@@H](N)CCSC)C(=O)N[C@@H](Cc1ccccc1)C(=O)N[C@@H](CC(C)C)C(=O)N[C@@H](Cc1c[nH]cn1)C(=O)N[C@@H](CCCNC(=N)N)C(=O)N[C@@H](CC(C)C)C(=O)N[C@@H](CCCCN)C(=O)N[C@@H](CCCNC(=N)N)C(=O)N[C@@H](CCSC)C(=O)N[C@@H](CCCNC(=N)N)C(=O)N[C@@H](CCCCN)C(=O)N[C@@H](CCCNC(=N)N)C(=O)N[C@@H](CC(C)C)C(=O)N[C@@H](CCCCN)C(=O)N[C@@H](CCCNC(=N)N)C(=O)N[C@@H](CCCCN)C(=O)O [SR-1] (H-MLKLIFLHRLKRMRKRLKRK-OH; N-terminus assumed) | higher than AG30-5C | 80.2 | higher healing effect compared with the bFGF formulation |  |
| NC[C@H]1O[C@H](O[C@H]2[C@H](O)[C@@H](O[C@H]3O[C@H](CO)[C@@H](O)[C@H](N)[C@H]3O)[C@H](N)C[C@@H]2N)[C@H](N)C[C@@H]1O [TOB, tobramycin, reference compound] |  |  |  | 0.25 to 1 (≈ 0.535 to 2.14 µM) |
| C[C@@H](O)[C@H]1C(=O)N2C(C(=O)O)=C(S[C@@H]3CN[C@H](C(=O)N(C)C)C3)[C@H](C)[C@H]12 [MEPM, meropenem, reference compound] |  |  |  | 0.008 to 0.06 (≈ 0.0209 to 0.156 µM) |
| CC(C)C[C@H](NC(=O)[C@H](CCCCN)NC(=O)[C@H](CCCNC(=N)N)NC(=O)[C@H](CCCCN)NC(=O)[C@H](CC(C)C)NC(=O)[C@H](CCCNC(=N)N)NC(=O)[C@H](CCCCN)NC(=O)[C@H](CCCNC(=N)N)NC(=O)[C@H](CC(C)C)NC(=O)[C@H](CCCNC(=N)N)NC(=O)[C@H](CCCNC(=N)N)NC(=O)[C@H](CCCCN)NC(=O)[C@H](CC(C)C)NC(=O)[C@H](CCCNC(=N)N)NC(=O)[C@H](Cc1c[nH]cn1)NC(=O)[C@H](CC(C)C)NC(=O)[C@H](Cc1ccccc1)NC(=O)[C@H](CCCNC(=N)N)NC(=O)[C@H](CC(C)C)NC(=O)[C@@H](N)CCC(=O)O)C(=O)N[C@@H](CCCNC(=N)N)C(N)=O [SR-2] (H-ELRFLHRLKRRLRKRLKRKLR-NH2; N-terminus assumed) | higher than AG30-5C |  |  |  |
